ChEMBL document CHEMBL1201862, “PubChem BioAssay data set” (2004)
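Growth conditions: 96-well plates. Treatment: test compound, 48 hours, 5 concentrations. Analysis: linear interpolation between bracketing concentrations; unreached endpoints set to highest concentration. Here, GI50 denotes the concentration required for 50% inhibition of growth.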 The source made the active and inactive calls. Cut-off read from the data, not from the text of the source: active = GI50 up to about 1.1 µM and inactive = higher.

What was measured:
Test in all cases: NCI anticancer screen, dose series, 48 h
SNB-19 = tested on: SNB-19
K562 = tested on: K562
CAKI-1 = tested on: CAKI-1
NCI-H460 = tested on: NCI-H460
SK-MEL-2 = tested on: SK-MEL-2
IGROV-1 = tested on: IGROV-1
COLO 205 = tested on: COLO 205
NCI/ADR-RES = tested on: NCI/ADR-RES
EKVX = tested on: EKVX
UACC-257 = tested on: UACC-257
HL-60 = tested on: HL-60
NCI-H226 = tested on: NCI-H226
ACHN = tested on: ACHN
UO-31 = tested on: UO-31
Hs-578T = tested on: Hs-578T
T47D = tested on: T47D
UACC-62 = tested on: UACC-62
MDA-N = tested on: MDA-N
Malme-3M = tested on: Malme-3M

Row | SMILES | GI50 (SNB-19) | GI50 (K562) | GI50 (CAKI-1) | GI50 (NCI-H460) | GI50 (SK-MEL-2) | GI50 (IGROV-1) | GI50 (COLO 205) | GI50 (NCI/ADR-RES) | GI50 (EKVX) | GI50 (UACC-257) | GI50 (HL-60) | GI50 (NCI-H226) | GI50 (ACHN) | GI50 (UO-31) | GI50 (Hs-578T) | GI50 (T47D) | GI50 (UACC-62) | GI50 (MDA-N) | GI50 (Malme-3M)
1 | CCOC(=O)Cc1nn2c(=O)cc(C)nc2s1 | > 100 µM (inactive) | > 100 µM (inactive) | > 100 µM (inactive) | > 100 µM (inactive) | > 100 µM (inactive) | > 100 µM (inactive) | > 100 µM (inactive) | > 100 µM (inactive) | > 100 µM (inactive) | > 100 µM (inactive) | > 100 µM (inactive) | > 100 µM (inactive) | > 100 µM (inactive) | > 100 µM (inactive) | > 100 µM (inactive) | > 100 µM (inactive) | > 100 µM (inactive) | > 100 µM (inactive) | > 100 µM (inactive)
2 | COC(=O)c1ccccc1C1CN=NC12Cc1ccc3c(c1C2=O)CCC3 (centres undefined) | 65 µM (inactive) | 7.23 µM (inactive) | > 100 µM (inactive) | 70 µM (inactive) | > 100 µM (inactive) | > 100 µM (inactive) | > 100 µM (inactive) | 19.5 µM (inactive) | > 100 µM (inactive) | 44.1 µM (inactive) | 19.6 µM (inactive) | 55.1 µM (inactive) | 50.4 µM (inactive) | 68.5 µM (inactive) | 74.3 µM (inactive) | 19.2 µM (inactive) | > 100 µM (inactive) | > 100 µM (inactive) | 21.8 µM (inactive)
3 | CCOC(=O)c1cc2c3c(cc(OC)c2[nH]1)N(C(=O)OCC)CC3 | > 100 µM (inactive) | > 100 µM (inactive) | > 100 µM (inactive) | > 100 µM (inactive) | > 100 µM (inactive) | > 100 µM (inactive) | > 100 µM (inactive) | > 100 µM (inactive) | 42.5 µM (inactive) | > 100 µM (inactive) | > 100 µM (inactive) | > 100 µM (inactive) |  | > 100 µM (inactive) | > 100 µM (inactive) | > 100 µM (inactive) | > 100 µM (inactive) | > 100 µM (inactive) | > 100 µM (inactive)
4 | N#CC1(O)CCCCCCCCCCC1 | > 100 µM (inactive) | > 100 µM (inactive) | > 100 µM (inactive) | > 100 µM (inactive) | > 100 µM (inactive) | > 100 µM (inactive) | > 100 µM (inactive) | > 100 µM (inactive) | > 100 µM (inactive) | > 100 µM (inactive) | > 100 µM (inactive) | > 100 µM (inactive) | > 100 µM (inactive) | > 100 µM (inactive) | > 100 µM (inactive) | > 100 µM (inactive) | > 100 µM (inactive) | > 100 µM (inactive) | > 100 µM (inactive)
5 | Cc1cccc2c1Oc1ccccc1C2NC(=O)c1ccc([N+](=O)[O-])cc1 (centres undefined) | > 100 µM (inactive) | > 100 µM (inactive) | 69 µM (inactive) | > 100 µM (inactive) | > 100 µM (inactive) | > 100 µM (inactive) |  | 79.4 µM (inactive) | > 100 µM (inactive) | > 100 µM (inactive) | > 100 µM (inactive) | 15.6 µM (inactive) | > 100 µM (inactive) | > 100 µM (inactive) | 29.4 µM (inactive) | > 100 µM (inactive) | > 100 µM (inactive) | > 100 µM (inactive) | 86.7 µM (inactive)
6 | O=C(c1cc(Cl)cc(Cl)c1)N(C(=O)N1CCN(c2ccccc2)CC1)c1ccccc1 | 53.3 µM (inactive) | 10.5 µM (inactive) | 33.1 µM (inactive) | 29.7 µM (inactive) | 24.8 µM (inactive) |  | 17.3 µM (inactive) | 25.6 µM (inactive) | 20.7 µM (inactive) | 28.9 µM (inactive) | 17.2 µM (inactive) | 22.8 µM (inactive) | 72.9 µM (inactive) | 18.7 µM (inactive) | 56.1 µM (inactive) | 18.1 µM (inactive) | 24.9 µM (inactive) | 12.7 µM (inactive) | 47 µM (inactive)
7 | Oc1ccc([C@H]2c3c(O)cc(O)cc3C3c4c(cc(O)cc4[C@@H]2[C@H]2c4cc(O)cc5c4C(c4cc(O)cc(O)c4[C@@H]2c2ccc(O)cc2)[C@@H](c2ccc(O)cc2)O5)O[C@@H]3c2ccc(O)cc2)cc1 (some centres undefined) | 3.35 µM (inactive) | 35.2 µM (inactive) | > 100 µM (inactive) | 3.89 µM (inactive) | 1.58 µM (inactive) | 6.73 µM (inactive) | 0.348 µM (active) | > 100 µM (inactive) | 0.29 µM (active) | 0.356 µM (active) | 2.48 µM (inactive) | > 100 µM (inactive) | 6.93 µM (inactive) |  | 0.0497 µM (active) | 0.536 µM (active) | 0.15 µM (active) | 0.871 µM (active) | 0.411 µM (active)
